The record followed here is patent US20250034194A1, “INHIBITORS OF ABNORMAL PHOSPHORYLATION AND TAU PROTEIN AGGREGATION” (UNIVERSITE DE PICARDIE JULES VERNE, priority 2021, published 2025).

The target in assay [1] is T1, tau protein (4R2N, 441 amino acids) (Homo sapiens, UniProt P10636).
T1 construct: purchased Millipore (tau); Promega (GSK3β)
Kind of assay: In vitro abnormal tau phosphorylation by GSK3β, competition with heparin (western blot). Type of assay: biochemical. From the text:
Phosphorylation of tau protein is the most common post-translational modification to regulate tau activity and functions. The longest tau isoform (4R2N, 441 amino acids) containing 85 potential phosphorylation sites was used. In vitro phosphorylation of the tau protein is done by induction, on the one hand, (FIG. 5) and, on the other hand, according to a competition process between the LG2A molecules and heparin, conventionally used to induce abnormal tau phosphorylation in vitro (FIGS. 3, 4, 6, 7, 8, 9 and 10).
For abnormal tau phosphorylation tests, GSK3p, a kinase centrally involved in this process in the brains of subjects with Alzheimer's disease (AD), was used. Analysis of tau phosphorylation by GSK3b at sites characteristic of AD is possible by the western blot technique using specific antibodies that recognize abnormally phosphorylated sites in the brain or cerebrospinal fluid of AD subjects, such as the AT270 antibody which recognizes threonine 181 (Thr181), the PHF1 antibody which recognizes serines 396 and 404 (Ser396/Ser404), and the AT8 antibody, which recognizes the Ser199/Ser202/Thr205 site.
By competition: The tau protein (40 μg/mL) is phosphorylated by the GSK3β enzyme at 4 ng/mL (Promega) in the presence of ATP (Sigma-Aldrich) at 48 μM and protease inhibitors (Sigma-Aldrich, 1/100), in the buffer mentioned above. The ability of the LG2A molecules (60 μg/mL) to compete with heparin (12 μg/mL; Sigma-Aldrich) is evaluated. Thus if the signal in the presence of the molecules is less than that obtained with heparin alone, the molecules are then defined as “protectors” from abnormal tau phosphorylation.
In both systems (induction or competition), the tau protein is incubated at 37° C. with stirring in the presence of the different elements presented above. The reaction kinetics are monitored by taking 8 μL of the samples at 1.5 h, 3 h and 6 h of incubation. Loading buffer (Euromedex) and β-mercaptoethanol (Sigma-Aldrich) are added to each sample. The samples are then stored at −20° C. until analysis by western blot.
After denaturation of the samples by heating at 95° C. for 5 minutes, the samples are deposited simultaneously with the molecular weight marker (Precision Plus Protein™ Dual Color Standards; BIO-RAD) on a 10% acrylamide gel placed in an electrophoresis tank containing migration buffer (0.25 M Tris; 1.6 M Glycine; […]; pH 8.6).
The controls used for this phosphorylation experiment followed by western blot are: • the “native tau” protein, that is to say the non-phosphorylated tau protein. • the tau protein phosphorylated by GSK3b alone in the absence of heparin. • the tau protein phosphorylated in the presence of heparin, denoted “tau+heparin”. • the “external standard” corresponding to the tau protein phosphorylated in the presence of heparin for 3 h. This standard is carried out in an experiment independently of the phosphorylation experiments in the presence of LG2A compounds. It ensures that the western blot is carried out correctly.
Then the membrane is incubated overnight with stirring at +4° C. in a solution of PBS, 0.1% Tween and 1% milk containing the primary antibody specific for tau phosphorylation sites (AT270, ThermoScientific or S199-202, Millipore).
After incubation of the PVDF membrane in the chosen primary antibody, a succession of 3 washes of 5 minutes of the membrane is carried out in PBS and 0.1% Tween with stirring and the membrane is incubated for 1 h with stirring at room temperature in a solution of 1×PBS, 0.1% Tween and 1% milk containing the diluted secondary antibody (Jackson Immuno-Research).
A general note: Immunoblotting shows a protein as a band on a membrane.

Assay [2] addresses T2, tau protein (4R2N isoform, 441 amino acids) (Homo sapiens, UniProt P10636).
T2 construct: purchased Tebu-bio (custom synthesized)
Kind of assay: Induction of tau protein aggregation, Thioflavin T incorporation. Type of assay: biochemical. The note with it: tau 0.71 mg/mL, compound 0.175 mg/mL (mass ratio 4/1); up to 72 h. How it is done:
The ability of the 16-carbon disulphated maltobionamide compound “Mal16diS” to induce tau protein aggregation, another step in the occurrence of neurofibrillary tangles, was evaluated. Thus, the ability of this molecule to induce or inhibit the aggregation of tau in vitro (FIG. 10) was evaluated in a test described in the article by Sui et al, 2015 in which tau aggregation is monitored by the incorporation of Thioflavin T (ThT). […]
100 μL of ThT (Sigma-Aldrich) at 50 μM is immediately added to each well, then the plate is incubated at 37° C. with stirring. Monitoring the formation of tau protein aggregates is possible by monitoring the incorporation of thioflavin leading to its fluorescence emission and is carried out by reading at 0, 24, 40, 48 and 71 h at Exc wavelength 450 nm/Em wavelength 510 nm, by means of an Infinite M1000 spectrofluorometer (Tecan).

T1 sequence (P10636 1-441 isoform P10636-8): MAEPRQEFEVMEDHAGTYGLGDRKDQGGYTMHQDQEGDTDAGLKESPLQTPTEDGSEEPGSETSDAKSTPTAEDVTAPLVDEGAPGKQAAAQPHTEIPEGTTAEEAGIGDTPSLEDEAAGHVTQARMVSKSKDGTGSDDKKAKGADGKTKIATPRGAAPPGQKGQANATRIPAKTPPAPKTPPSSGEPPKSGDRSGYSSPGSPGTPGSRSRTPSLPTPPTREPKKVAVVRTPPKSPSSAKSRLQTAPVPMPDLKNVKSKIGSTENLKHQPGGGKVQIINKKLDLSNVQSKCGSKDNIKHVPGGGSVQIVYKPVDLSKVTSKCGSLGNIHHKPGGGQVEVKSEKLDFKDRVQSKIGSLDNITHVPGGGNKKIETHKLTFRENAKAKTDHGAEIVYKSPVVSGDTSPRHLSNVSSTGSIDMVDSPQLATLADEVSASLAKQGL
T2 sequence (P10636 1-441 isoform P10636-8): as above

For the molecule `CCCCCCCCCCCCCCCCNC(=O)[C@H](O)[C@@H](O)[C@H](O[C@H]1OC(COS(=O)(=O)[O-])[C@@H](O)C(O)[C@@H]1O)[C@H](O)COS(=O)(=O)[O-].[Na+].[Na+]` (stereo partly drawn) [Mal16diS, N-Hexadecyl-6,6′-Di-O-Sulfo-D-Maltobioamide Disodium], the “abnormal phosphorylation of tau (p-tau) revealed by AT270 and Ser199/202 antibodies” value in assay [1] (in presence of heparin, after 3 h of reaction) was “inhibited”. Further, in assay [1] (molecule 60 μg/mL vs heparin 12 μg/mL, 1.5 to 6 h of reaction, AT270, Ser199/202), the “ability to compete with heparin for abnormal tau phosphorylation by GSK3β” value is reported as “total competition with heparin”. In assay [2], the “induction of tau protein aggregation (Thioflavin-T)” value is “induces the aggregation of tau protein more weakly compared to heparin”.
